# Laboratory results: patent publication US10245237B2, “Compressed tablet containing cannabidiol, method for its manufacture and use of such tablet in oral treatment of psychosis or anxiety disorders” (Echo Pharmaceuticals B.V., priority 2013, dated 2019)
# Key:
# [1] = Rate of dissolution of CBD according to Ph. Eur. 2.9.3 for oral tablets; assay type: physicochemical; settings: 1 wt. % SDS in water, pH 7, 36-41° C.
# Method: The rate of dissolution of CBD from the compressed tablets described in Example 2 was tested according to European Pharmacopeia (Ph. Eur. 2.9.3) for oral tablets. The rate of dissolution of pure CBD (20 mg) was determined using the same method.
# The dissolution medium consisted of a solution of 1 wt. % SDS in water. The pH of the medium had been adjusted to 7 with diluted HCl. During the experiments, the temperature of the dissolution media was maintained between 36 and 41° C. under stirring. After dropping the tablet in the dissolution medium, samples were taken at various time intervals with a disposable syringe. The samples were filtered immediately over a syringe filter into a HPLC vial and analyzed by HPLC.
# [2] = A. J. Poortman, H. Huizer, Forensic Science International (1999); cited from earlier work
# schizophrenic patient = settings: cited from earlier work
smiles,measurement,setting,value
"C=C(C)[C@@H]1CCC(C)=C[C@H]1c1c(O)cc(CCCCC)cc1O [CBD, cannabidiol]",% (w/w) of CBD dissolved,[1]; 1 min,2.6 % (w/w)
same,% (w/w) of CBD dissolved,[1]; 4 min,9.2 % (w/w)
same,% (w/w) of CBD dissolved,[1]; 8 min,18.6 % (w/w)
same,% (w/w) of CBD dissolved,[1]; 15 min,27.4 % (w/w)
same,% (w/w) of CBD dissolved,[1]; 30 min,35.2 % (w/w)
same,% (w/w) of CBD dissolved,[1]; 45 min,42.4 % (w/w)
same,% (w/w) of CBD dissolved,[1]; 60 min,45.5 % (w/w)
same,stability of the drug,[2],unstable
same,symptom course,"schizophrenic patient; patient with schizophrenia, dose doubled every 5 days, at 1280 mg/day",trend for symptom improvement
same,clinical course during CBD treatment,"schizophrenic patient; schizophrenic patient, CBD dissolved in oil up to 1500 mg/day for 4 weeks",significant improvement
